PMC6669322, “Small Molecule Binding to Alzheimer Risk Factor CD33 Promotes Aβ Phagocytosis” (iScience, 2019)

Target: T1, CD33 S131A (Homo sapiens, UniProt P20138, S131A)
T1 construct: human CD33 ORF (NM_001772.3), lacking its signal peptide; expressed in transfected cells; host or cells: HEK293T, transient, pT8-SNAP vector
Assay: SNAP-tag homogeneous time-resolved fluorescence binding assay, CD33 S131A
Conditions: S131 mutated to alanine, in words
Experimental: We then used our structural data to design mutations of key residues interacting with P22 to assess which interactions were the most important for binding affinity. The residues were mutated into alanine, and the effect of these mutations on P22 binding affinity was assessed using a SNAP-tag homogeneous time-resolved fluorescence binding assay (see Transparent Methods and Figures 3E–3G). The R119A mutation, which destroys the salt bridge between P22 and CD33, was one of the most detrimental to binding (>30-fold loss) (Figure 2C and Table S4). […]
HEK293T cells were cultured in DMEM (ThermoFisher Scientific # 11965092) containing 10% FBS (Hyclone # SH30070.03) and 1% Penicillin-Streptomycin (ThermoFisher Scientific # 15140122) and transfected using Fugene HD (Promega # E2312) in 10 cm plates. […] The cells were counted, centrifuged and resuspended in PBS at a concentration of 1,000 cells/μL and 10 μL were plated into each well. […] Non-specific binding was assessed by competition with 100 μM of the non-labeled P22, as well as in control (Snap-tagged dopamine D2R receptor)-transfected cells.
Fluorescence was read with a PHERAstar plate reader using an excitation of 337 nm and emissions of 620 and 665 nm. […]

T1 sequence (P20138 18-364 S131A): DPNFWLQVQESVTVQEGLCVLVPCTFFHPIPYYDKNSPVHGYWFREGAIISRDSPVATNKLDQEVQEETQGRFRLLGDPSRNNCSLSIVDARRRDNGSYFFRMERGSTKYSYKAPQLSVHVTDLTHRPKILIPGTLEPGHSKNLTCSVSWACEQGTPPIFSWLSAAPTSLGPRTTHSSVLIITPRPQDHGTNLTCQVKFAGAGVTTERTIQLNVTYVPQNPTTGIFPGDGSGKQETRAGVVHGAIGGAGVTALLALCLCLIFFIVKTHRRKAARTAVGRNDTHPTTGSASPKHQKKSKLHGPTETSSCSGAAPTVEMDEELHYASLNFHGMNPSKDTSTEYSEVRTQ

With `Cc1cc(C(=O)NC[C@@H](O)[C@@H](O)[C@@H]2O[C@@](OC[C@H]3O[C@@H](O[C@H]4[C@H](O)[C@@H](O)[C@H](OCCN)O[C@@H]4CO)[C@H](O)[C@@H](O)[C@H]3O)(C(=O)O)C[C@H](O)[C@H]2NC(=O)Cn2cc(C3CCCCC3)nn2)cc(C)c1O` [P22, β-D-Glucopyranoside, 2-aminoethyl O-[N-[2-(4-cyclohexyl-1H-1,2,3-triazol-1-yl)acetyl]-9-deoxy-9-[(4-hydroxy-3,5-dimethylbenzoyl)amino]-α-neuraminosyl] (2→6)-O-β-D-galactopyranosyl-(1→4)-] the “impact of mutation on P22 binding affinity” value was “little to no significant impact”.
